Data as given in patent US10441562B2, “Aromatic farnesyl compound and application thereof” (INSTITUTE OF MICROBIOLOGY, CHINESE ACADEMY OF SCIENCES, priority 2015, dated 2019).
Marks after values point to notes of the source that are not given here.

Experiments:
dipeptidyl peptidase-4 = biological target: T1, dipeptidyl peptidase-4 (Homo sapiens, UniProt P27487); assay: dipeptidyl peptidase-4 inhibitory activity test in vitro (DPP-4 inhibitor screening kit); format: biochemical
T1 construct: purchased
Text: The above compounds are detected by DPP-4 inhibitor screening kit.

[1] = system: hyperglycemia mice induced by alloxan; assay: blood sugar of hyperglycemia mice induced by alloxan; format: in vivo, Kunming species mice
Method: Blood glucose determination kit (batch number 20140403) is purchased from Nanjing Jiancheng Bioengineering Institute. Methods: after being acclimatized for 1 week, 10 randomly selected Kunming species male mice of SPF level of 20±2 g are used as control group, while the other 50 mice are given alloxan to make model by intraperitoneal injection according to body weight 220 mg/kg.

[2] = system: hyperglycemia KK-A^y mice; assay: blood sugar of hyperglycemia KK-A^y mice; format: in vivo; parameters: blood sugar: unit not given here; conditions: for blood sugar at the 1st day, 0: 1st day 0 h; for blood sugar at the 1st day, 30 min: 1st day 30 min after intragastric administration
Method: (§1) Materials: accurately weigh the 2 compounds S13 and S28 discussed in example 2, and then add 0.5% CMC-Na to make the solution of 5 mg/ml used for activity test. KK-A^y mice are purchased from Chinese Academy of Medical Sciences & Peking Union Medical College Institute of Animal Studies. Experiments are carried out after adapting to the environment (T=20-24° C., constant humidity: 50-60%, 12 hours light exposure (8:00-20:00), soundproof, free feeding and drinking) for 1 week. Glucometer is purchased from Roche.
(§2) Methods: 10 male C57 mice of 6-8 weeks of 20-22 g are used as normal control group (1). Detect the fasting glucose of male KK-A^y mice, which are 6-8 weeks with the weight of 28-32 g, and divide them into different groups according to the blood sugar level and body weight: (2) model control group, (3) which is administered by compound S13 with the dose of 1 mg/kg, (4) which is administered by compound S13 with the dose of 5 mg/kg, (5) which is administered by compound S13 with the dose of 10 mg/kg, (6) which is administered by compound S13 with the dose of 20 mg/kg, (7) which is administered by compound S28 with the dose of 1 mg/kg, (8) which is administered by compound S28 with the dose of 5 mg/kg, (9) which is administered by compound S28 with the dose of 10 mg/kg, (10) which is administered by compound S28 with the dose of 20 mg/kg, (11) which is administered by metformin with the dose of 8 g/kg, (12) which is administered by compound S13 with the dose of 2.5 mg/kg and metformin with the dose of 4 g/kg, (13) which is administered by compound S13 with the dose of 5 mg/kg and metformin with the dose of 4 g/kg, (14) which is administered by compound S28 with the dose of 2.5 mg/kg and metformin with the dose of […], (15) which is administered by compound S28 with the dose of 5 mg/kg and metformin with the dose of […]. Each group has 8 mice, and is administrated successively for 3 weeks. Model control group is given with equal amounts of 0.5% CMC-Na.
1) Effects of drugs on blood sugar: at the first day after administration, the mice are fasted for 2 hours and blood is collected (0 h) to detect the fasting blood sugar. After the compound is given to the mice by intragastric administration for 30 min, blood is collected from tip of tail to detect the blood sugar level.
(§3) 2) Effects on body weight and blood sugar: the body weight of mice are recorded at the 2th, 5th, 8th, 11th, 14th, 17th, 20th day after administration, and blood is collected from tip of tail to detect the blood sugar level (see table 10).

[3] = body weight of hyperglycemia KK-A^y mice; format: in vivo
Method: as §1, §2, §3

[4] = acute toxicity test of mice; conditions: Kunming, mouse, in vivo, po, 5 g/kg
Method: (§4) Materials: 20 Kunming species mice of 6-8 weeks of 20-22 g are purchased from Beijing Vital River Laboratory Animal Technology Co., Ltd.,
(§5) Accurately weigh the 2 compounds S13 and S28, and then add 0.5% CMC-Na to make the solution of 0.2 g/ml.
(§6) After being acclimatized for 3-5 days, the mice are fasted at 18:00 in the day before the experiment, free drinking. The mice are randomly divided into groups of 10 animals in each and given with medicine by intragastric administration, and 0.25 ml of drugs is given to every 10 g weight of mice, i.e. dose 5 g/kg. Mice of control group are given with 0.5% CMC-Na by intragastric administration, and 0.25 ml of solution are given to every 10 g weight of mice.
(§7) After administration, observe the general status of mice, such as appearance, behavior, response to stimulus, secretion and excretion, and record the time when abnormal phenomena happen. If death occurred, record time and observe the abnormal phenomena by autopsy.

Kunming species mice = assay: acute toxicity test of mice; conditions: mice, intragastric administration, dose 5 g/kg
Method: as §4, §5, §6, §7

[5] = 2st day, 20 mg/kg, groups 6, 10
[6] = 5st day, 20 mg/kg, groups 6, 10
[7] = 8st day, 20 mg/kg, groups 6, 10
[8] = 11st day, 10 mg/kg, groups 5, 9
[9] = 11st day, 20 mg/kg, groups 6, 10
[10] = 14st day, 10 mg/kg, groups 5, 9
[11] = 14st day, 20 mg/kg, groups 6, 10
[12] = 17st day, 10 mg/kg, groups 5, 9
[13] = 17st day, 20 mg/kg, groups 6, 10
[14] = 20st day, 10 mg/kg, groups 5, 9
[15] = 20st day, 20 mg/kg, groups 6, 10

T1 sequence (P27487 whole entry, species assumed): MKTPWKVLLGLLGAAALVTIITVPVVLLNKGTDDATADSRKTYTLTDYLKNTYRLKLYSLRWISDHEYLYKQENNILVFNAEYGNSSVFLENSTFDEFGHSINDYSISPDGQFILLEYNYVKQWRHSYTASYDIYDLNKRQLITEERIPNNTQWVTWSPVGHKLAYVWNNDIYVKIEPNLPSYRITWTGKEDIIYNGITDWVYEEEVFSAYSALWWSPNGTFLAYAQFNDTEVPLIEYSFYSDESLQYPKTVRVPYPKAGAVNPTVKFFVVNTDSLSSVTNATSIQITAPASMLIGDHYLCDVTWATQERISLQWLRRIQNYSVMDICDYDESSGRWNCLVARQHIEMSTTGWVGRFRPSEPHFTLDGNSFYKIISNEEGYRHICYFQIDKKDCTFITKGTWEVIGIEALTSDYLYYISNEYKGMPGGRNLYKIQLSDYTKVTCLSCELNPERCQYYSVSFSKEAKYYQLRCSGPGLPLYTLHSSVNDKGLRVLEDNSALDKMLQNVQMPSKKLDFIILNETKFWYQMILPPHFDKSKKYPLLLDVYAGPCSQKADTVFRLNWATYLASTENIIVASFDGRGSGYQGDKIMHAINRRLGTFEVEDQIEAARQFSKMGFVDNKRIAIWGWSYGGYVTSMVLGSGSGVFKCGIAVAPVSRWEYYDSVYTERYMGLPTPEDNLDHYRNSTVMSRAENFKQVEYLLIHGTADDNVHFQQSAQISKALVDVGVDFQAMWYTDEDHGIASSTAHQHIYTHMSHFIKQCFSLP

CC(C)=CCC/C(C)=C/CCC1=C[C@H](c2cc(O)ccc2O)OC1=O [S13, (R,E)-5-(2,5-dihydroxyphenyl)-3-(4,8-dimethylnona-3,7-dien-1-yl)furan-2(5H)-one]
IC50 (dipeptidyl peptidase-4): 4.5 µM | blood sugar after administration ([1]; 50 mg/kg intragastric, 10 days, fasted 10 hours): 5.11** mmol/L | effect on blood sugar level of hyperglycemic mice (in words) ([1]; 50 mg/kg, 10 days): significantly decrease the blood sugar level of hyperglycemic mice | blood sugar before administration ([1]; before administration): 14.50 mmol/L | effect on blood sugar of hyperglycemia mice (in words) [2]: significant effects on blood sugar of hyperglycemia mice | blood sugar at the 1st day, 0 ([2]; 1 mg/kg, groups 3, 7): 14.7 | blood sugar at the 1st day, 0 ([2]; 5 mg/kg, groups 4, 8): 14.8 | blood sugar at the 1st day, 0 ([2]; 10 mg/kg, groups 5, 9): 14.9 | blood sugar at the 1st day, 0 ([2]; 20 mg/kg, groups 6, 10): 14.7 | blood sugar at the 1st day, 30 min ([2]; 1 mg/kg, groups 3, 7): 11.1 | blood sugar at the 1st day, 30 min ([2]; 5 mg/kg, groups 4, 8): 9.2 | blood sugar at the 1st day, 30 min ([2]; 10 mg/kg, groups 5, 9): 9.21 | blood sugar at the 1st day, 30 min ([2]; 20 mg/kg, groups 6, 10): 6.24 | blood sugar ([2]; 2st day, 1 mg/kg, groups 3, 7): 17.3 | blood sugar ([2]; 2st day, 5 mg/kg, groups 4, 8): 10.1 | blood sugar ([2]; 2st day, 10 mg/kg, groups 5, 9): 13.98 | blood sugar [2, 5]: 13.2 | blood sugar ([2]; 5st day, 1 mg/kg, groups 3, 7): 14.1 | blood sugar ([2]; 5st day, 5 mg/kg, groups 4, 8): 10.8 | blood sugar ([2]; 5st day, 10 mg/kg, groups 5, 9): 13.5 | blood sugar [2, 6]: 12.9 | blood sugar ([2]; 8st day, 1 mg/kg, groups 3, 7): 13.8 | blood sugar ([2]; 8st day, 5 mg/kg, groups 4, 8): 7.1 | blood sugar ([2]; 8st day, 10 mg/kg, groups 5, 9): 14.1 | blood sugar [2, 7]: 12.8 | blood sugar ([2]; 11st day, 1 mg/kg, groups 3, 7): 15.1 | blood sugar ([2]; 11st day, 5 mg/kg, groups 4, 8): 8.2 | blood sugar [2, 8]: 14.2 | blood sugar [2, 9]: 12.8 | blood sugar ([2]; 14st day, 1 mg/kg, groups 3, 7): 12.3 | blood sugar ([2]; 14st day, 5 mg/kg, groups 4, 8): 8.2 | blood sugar [2, 10]: 13.9 | blood sugar [2, 11]: 12.5 | blood sugar ([2]; 17st day, 1 mg/kg, groups 3, 7): 13.1 | blood sugar ([2]; 17st day, 5 mg/kg, groups 4, 8): 8.2 | blood sugar [2, 12]: 14.5 | blood sugar [2, 13]: 12.3 | blood sugar ([2]; 20st day, 1 mg/kg, groups 3, 7): 12.8 | blood sugar ([2]; 20st day, 5 mg/kg, groups 4, 8): 10.1 | blood sugar [2, 14]: 14.59 | blood sugar [2, 15]: 12.5 | effect on body weight (in words) [3]: litter effect on body weight | Body weight ([3]; 2st day, 1 mg/kg, groups 3, 7): 30.6 g | Body weight ([3]; 2st day, 5 mg/kg, groups 4, 8): 30.7 g | Body weight ([3]; 2st day, 10 mg/kg, groups 5, 9): 30.3 g | Body weight [3, 5]: 30.5 g | Body weight ([3]; 5st day, 1 mg/kg, groups 3, 7): 30.8 g | Body weight ([3]; 5st day, 5 mg/kg, groups 4, 8): 30.8 g | Body weight ([3]; 5st day, 10 mg/kg, groups 5, 9): 30.2 g | Body weight [3, 6]: 30.3 g | Body weight ([3]; 8st day, 1 mg/kg, groups 3, 7): 30.5 g | Body weight ([3]; 8st day, 5 mg/kg, groups 4, 8): 30.9 g | Body weight ([3]; 8st day, 10 mg/kg, groups 5, 9): 30.3 g | Body weight [3, 7]: 30.2 g | Body weight ([3]; 11st day, 1 mg/kg, groups 3, 7): 30.5 g | Body weight ([3]; 11st day, 5 mg/kg, groups 4, 8): 31.2 g | Body weight [3, 8]: 31.5 g | Body weight [3, 9]: 30.1 g | Body weight ([3]; 14st day, 1 mg/kg, groups 3, 7): 31.2 g | Body weight ([3]; 14st day, 5 mg/kg, groups 4, 8): 31.5 g | Body weight [3, 10]: 32.5 g | Body weight [3, 11]: 30.4 g | Body weight ([3]; 17st day, 1 mg/kg, groups 3, 7): 31.8 g | Body weight ([3]; 17st day, 5 mg/kg, groups 4, 8): 31.5 g | Body weight [3, 12]: 32.1 g | Body weight [3, 13]: 30 g | Body weight ([3]; 20st day, 1 mg/kg, groups 3, 7): 32.1 g | Body weight ([3]; 20st day, 5 mg/kg, groups 4, 8): 31.6 g | Body weight [3, 14]: 32.5 g | Body weight [3, 15]: 30.1 g | LD50 [4]: > 5000 mg/kg | abnormal phenomena by autopsy (Kunming species mice): no obvious abnormal phenomena are found by autopsy
